For assay [1], the system named is endogenous APP. Nature of the assay: Western Blot of endogenous APP in culture supernatants of SH-SY5Y cells. In kind it is cell-based. Conditions: SH-SY5Y incubated 18 hours with 5 nM human TNFA and increasing concentrations of compound. As for the experimental part: This Example illustrates the effect of representative compounds nos. 2576, 2583, 3501, 3577, 4522, 4533, 4535 and 4537 used in the inventive method on endogenous APP expression.
Cell cultures were prepared as in Example 1 using SH-SY5Y human neuroblastoma cells. Culture supernatants from SH-SY5Y cells incubated for 18 hours with 5 nM human TNFA and increasing concentrations of representative compounds identified above were separated on a 4-20% SDS-polyacrylamide gel and transferred to nitrocellulose. The nitrocellulose filter was probed with anti-APP antibody (Boehringer Mannheim, Indpls, Ind.), and the results visualized by Enhanced Chemiluminecence (Amersham Life Sciences, Arlington Heights, Ill.).

For assay [2], the system named is human amyloid precursor protein (APP) promoter. The experiment in a line: APP promoter-alkaline phosphatase (pHAPPro. 1) reporter assay in transfected SH-SY5Y cells stimulated with hTNFα. The format is cell-based. Conditions: SH-SY5Y transfected with pHAPPro. 1; 1 nM hTNFα; increasing concentrations of agent. As for the experimental part:
This example is an in vitro assay confirming activity of an ability of representative agents to inhibit APP synthesis by effecting the level of alkaline phosphatase in the culture medium of human neuroblastoma cells, SH-SY5Y (Beidler et al., 1978), expression of which is controlled by a human amyloid precursor protein (APP) promoter.
The SH-SY5Y were transfected with the promoter-alkaline phosphatase reporter gene construct pHAPPro. The transfected cells were prepared as follows:
A DNA fragment comprising nucleotide pairs -660 to +20 of the human APP promoter (Salbaum et al. 1988) was isolate by polymerase chain reaction using human placental DNA as a template. Xba I and ASP718 restriction endonuclease recognition sites were incorporated during amplification to facilitate subcloning upstream of an alkaline phosphatase reporter gene, forming the plasmid pHAPPro. 1, represented in FIG. 1. SH-SY5Y were subsequently transfected with pHAPPro. 1.
Comparing results obtained in this assay to a standard based on alkaline phosphatase expression controlled by a human phosphoglycerol kinase (PGK) promoter, relative to any cytotoxic effects an agent confirms therapeutic efficacy in the inventive method.
In all assays, controls were done in triplicate. Control assays specifically included assays using: 1) unstimulated cells; 2) cells stimulated with 1 nM hTNFαalone; 3) cells stimulated with 1 nM hTNFα and increasing concentrations of agent, as tested for all representative agents; 4) cells stimulated with 1 nM hTNFα and increasing concentrations of vehicle (100% ethanol), corresponding to vehicle concentrations in test agent preparations.
Subsequent validation of all results included repeating tests with an expanded dose range. Results obtained were compared to an agent's inhibition of constituitive promoter for the phosphoglycerol kinase gene and endogenous amyloid precursor protein expression in neuroblastoma cells
SH-SY5Y cells, prepared above, were plated into wells of a 96-well dish at a density of 20,000 cells per well in […] AIM V medium (Gibco/BRL, Gaithersburg, Md.: CAT# 21021-019). Dishes were incubated at 5% CO2 and 37° C. for 12 to 24 hours. […]
Culture medium […] from each well was transferred to a corresponding well of a 96-well ELISA dish and […] 1× SEAP (0.5M diethanolamine (pH 9.8); 0.25 mM MgCl2; 0.01 mM ZnSO4; 10 mM L-homoarginine; 1 mM para-nitrophenyphosphate, Berger et al., 1988.), prepared above, was added to each well. The plates were incubated 10 minutes in 5% CO2 and 37° C., after which the kinetic change in absorbance at 405 nm was measured on a BIOTEK plate reader.
All data were imported into plotting software for analysis. Triplicate data points were averaged and standard error (from mean) was calculated using accepted standards. […]
(In general: Reporter assays use an easily measured gene product as a stand-in for the process of interest.)

SMILES strings stand for the structures.

In the case of `CCCCCCCCNCC(O)CCCCCCCCCn1c(=O)c2c(ncn2C)n(C)c1=O` (stereo not drawn) [Compound 2576], in assay [1], the “inhibition of expression of endogenous APP (FIG. 3)” value (“inhibition of expression … (FIG. 3)” for short) is listed as “inhibition of APP expression, in a dose-dependent manner”.

Regarding `CCCCCCCCCCNCC(O)CCCCCCCCCn1c(=O)c2c(ncn2C)n(C)c1=O` (stereo not drawn) [Compound 2583], the “inhibition of expression … (FIG. 3)” value in assay [1] is listed as “inhibition of APP expression, in a dose-dependent manner”.

`COc1cc(CNCC(O)CCCCCCCCCn2c(=O)c3c(ncn3C)n(C)c2=O)cc(OC)c1OC` (stereo not drawn) [Compound 3501]: the “inhibition of expression … (FIG. 3)” value in assay [1] is “inhibition of APP expression, in a dose-dependent manner”. The “inhibition of APP expression (FIG. 2)” value in assay [2] is reported as “inhibit APP expression in a dose-dependent fashion”.

For `COc1cc(CNC(=O)CCCCCCCCCCn2c(=O)c3c(ncn3C)n(C)c2=O)cc(OC)c1OC` [Compound 3577], in assay [1], the “inhibition of expression … (FIG. 3)” value is on record as “inhibition of APP expression, in a dose-dependent manner”. In addition, in assay [2], the “inhibition of APP expression (FIG. 2)” value is listed as “inhibit APP expression in a dose-dependent fashion”.

With `COc1cc(CNC(CO)CCCCCCCCCn2c(=O)c3c(ncn3C)n(C)c2=O)cc(OC)c1OC` (stereo not drawn) [Compound 4522], the “inhibition of expression … (FIG. 3)” value in assay [1] is “inhibition of APP expression, in a dose-dependent manner”. In addition, in assay [2], the “inhibition of APP expression (FIG. 2)” value is “inhibit APP expression in a dose-dependent fashion”.

As for `Cn1cnc2c1c(=O)n(CCCCCCCCCCC(=O)NCc1ccc3c(c1)OCO3)c(=O)n2C` [Compound 4533], the “inhibition of expression … (FIG. 3)” value in assay [1] is “inhibition of APP expression, in a dose-dependent manner”.

For `COc1cc(NC(=O)CCCCCCCCCCn2c(=O)c3c(ncn3C)n(C)c2=O)cc(OC)c1OC` [Compound 4535], in assay [1], the “inhibition of expression … (FIG. 3)” value was “inhibition of APP expression, in a dose-dependent manner”.

Take `CCCCCCCCN(CC(CCCCCCCCCn1c(=O)c2c(ncn2C)n(C)c1=O)OC(C)=O)C(C)=O` (stereo not drawn) [Compound 4537]: the “inhibition of expression … (FIG. 3)” value in assay [1] is recorded as “inhibition of APP expression, in a dose-dependent manner”. The “inhibition of APP expression (FIG. 2)” value in assay [2] is listed as “inhibit APP expression in a dose-dependent fashion”.

For the origin of these results see patent publication US5756511A, “Method for treating symptoms of a neurodegenerative condition” (Cell Therapeutics, Inc., priority 1995, dated 1998).
